Earlier results in EP0656010B1, “Use of peptides causing a immune response for the preparation of medicaments to induce the suppression of the immune reaction” (priority 1992, dated 2001).

System: sujets infectés par les VIH-1
Conditions: subjects infected with HIV-1

Sequence: GGEFFYCNSTQL
- réponse immunitaire cellulaire dirigée contre le peptide: réponse immunitaire cellulaire

Sequence: SVEINCTRPNNNTRKSI
- réponse immunitaire cellulaire dirigée contre le peptide: réponse immunitaire cellulaire
